The source of these data is patent publication US5869489A, “Trypthophan ureas as neurokinnin antagonists” (Merck & Co., Inc., priority 1997, dated 1999).

In assay [1] the target is T1, human NK1R (Homo sapiens, UniProt P25103).
T1 construct: expressed in transfected cells
The assay is described as follows: Binding assay of human NK1R expressed in COS or CHO cells, displacement of 125I-substance P (Table 1, hNK1). The following applies: human NK1 receptor, 125I-substance P ligand; read-out: hNK1 (IC50 nM). As for the experimental part: (§1) A. Receptor Expression in COS
(§2) To express the cloned human neurokinin-1 receptor (NK 1R) transiently in COS, the cDNA for the human NK 1R was cloned into the expression vector pCDM9 which was derived from pCDM 8 (INVITROGEN) by inserting the ampicillin resistance gene (nucleotide 1973 to 2964 from BLUESCRIPT SK+) into the Sac II site. Transfection of 20 μg of the plasmid DNA into 10 million COS cells was achieved by electroporation in 800 μl of transfection buffer (135 mM NaCl, 1.2 mM CaCl2, 1.2 mM MgCl2, 2.4 mM K2 HPO4, 0.6 mM KH2 PO4, 10 mM glucose, 10 mM HEPES pH 7.4) at 260 V and 950 uF using the IBI GENEZAPPER (IBI, New Haven, Conn.). The cells were incubated in 10% fetal calf serum, 2 mM glutamine, 100 U/ml penicillin-streptomycin, and 90% DMEM media (GIBCO, Grand Island, N.Y.) in 5% CO2 at 37° C. for three days before the binding assay. Similar methods were used to express the NK2 receptor.
(§3) B. Stable Expression in CHO
(§4) To establish a stable cell line expressing the cloned human NK1R, the cDNA was subcloned into the vector pRcCMV (INVITROGEN). Transfection of 20 μg of the plasmid DNA into CHO cells was achieved by electroporation in 800 μl of transfection buffer suplemented with 0.625 mg/ml Herring sperm DNA at 300 V and 950 uF using the IBI GENEZAPPER (IBI). The transfected cells were incubated in CHO media (10% fetal calf serum, 100 U/ml pennicilin-streptomycin, 2 mM glutamine, 1/500 hypoxanthine-thymidine(ATCC), 90% IMDM media (JRH BIOSCIENCES, Lenexa, Kans.), 0.7 mg/ml G418 (GIBCO)) in 5% CO2 at 37° C. until colonies were visible. Each colony was separated and propagated. The cell clone with the highest number of human NK1R was selected for subsequent applications such as drug screening. Similar methods were used to express the human NK2 receptor.
(§5) C. Assay Protocol using COS or CHO The binding assay of human NK1R expressed in either COS or CHO cells is based on the use of ^125 I-substance P (^125 I-SP, from DU PONT, Boston, Mass.) as a radioactively labeled ligand which competes with unlabeled substance P or any other ligand for binding to the human NK1R. […] In the binding assay, 500 μl of cells were added to a tube containing 20 μl of 1.5 to 0.25 nM of ^125 I-SP and 5 μl of unlabeled substance P or any other test compound in DMSO. The tubes were incubated at 4° C. or at room temperature for 1 hour with gentle shaking. The bound radioactivity was separated from unbound radioactivity by GF/C filter (BRANDEL, Gaithersburg, Md.) which was pre-wetted with 0.1% polyethylenimine. The filter was washed with 3 ml of wash buffer (50 mM Tris pH 7.5, 5 mM MnCl2, 150 mM NaCl) three times and its radioactivity was determined by gamma counter. A similar assay was used for NK2 except ^125 I-NKA was used as the ligand.
(In general: In a radioligand displacement assay an active substance lowers the binding of a labelled ligand.)

For assay [2], the target named is T2, human NK2 receptor (Homo sapiens, UniProt P21452).
T2 construct: expressed in transfected cells
T2 sequence (P21452 1-398): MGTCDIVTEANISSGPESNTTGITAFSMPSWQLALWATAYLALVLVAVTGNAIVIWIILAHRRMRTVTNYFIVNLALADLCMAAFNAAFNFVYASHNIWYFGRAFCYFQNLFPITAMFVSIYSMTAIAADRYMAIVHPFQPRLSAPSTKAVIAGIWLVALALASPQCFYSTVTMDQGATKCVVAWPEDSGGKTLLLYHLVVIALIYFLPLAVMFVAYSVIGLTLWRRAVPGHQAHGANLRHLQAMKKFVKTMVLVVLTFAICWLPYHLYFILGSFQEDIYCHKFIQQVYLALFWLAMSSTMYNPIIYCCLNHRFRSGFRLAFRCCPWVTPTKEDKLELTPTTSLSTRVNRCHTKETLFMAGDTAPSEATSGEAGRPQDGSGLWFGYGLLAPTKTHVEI
The assay can be described thus: Binding assay of NK2 receptor expressed in COS or CHO cells, displacement of 125I-NKA (Table 1, hNK2). The following applies: human NK2 receptor, 125I-NKA ligand; read-out: hNK2 (IC50 nM). As for the experimental part:
as §1, §2, §3, §4, §5

T1 sequence (P25103 whole entry): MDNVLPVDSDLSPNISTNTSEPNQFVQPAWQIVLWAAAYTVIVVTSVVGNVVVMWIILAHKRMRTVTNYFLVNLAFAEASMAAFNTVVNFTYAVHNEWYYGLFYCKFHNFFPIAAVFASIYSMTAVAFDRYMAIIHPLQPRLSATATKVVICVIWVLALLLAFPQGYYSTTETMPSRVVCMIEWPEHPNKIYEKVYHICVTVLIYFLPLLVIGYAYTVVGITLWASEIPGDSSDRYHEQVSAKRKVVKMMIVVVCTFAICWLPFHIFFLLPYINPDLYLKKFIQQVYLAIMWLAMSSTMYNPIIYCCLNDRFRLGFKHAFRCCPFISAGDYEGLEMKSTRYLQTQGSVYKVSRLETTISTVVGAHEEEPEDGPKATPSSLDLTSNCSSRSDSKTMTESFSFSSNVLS

For `O=C(Nc1ccccc1)[C@H](Cc1c[nH]c2ccccc12)NC(=O)N1CCC2(CCc3ccccc32)CC1` [Example 14, N-Phenyl-2-(S)-((spiroindane-1,4'-piperidino)-carbonyl-amino)-3-(3-indolyl)propionamide], the IC50 (commonly the midpoint of a concentration-inhibition curve) in assay [1] is over 1000 nM; in assay [2] it was 650 nM.

On to `Cc1ccc(CNC(=O)[C@H](Cc2c[nH]c3ccccc23)NC(=O)N2CCC3(CCc4ccccc43)CC2)cc1` [Example 18, N-(4-Methylbenzyl)-2-(S)-((spiroindane-1,4'-piperidino)-carbonyl-amino)-3-(3-indolyl)propionamide], for which the IC50 in assay [1] was 100 nM; in assay [2], 200 nM.

Turning to `O=C(OCc1cc(C(F)(F)F)cc(C(F)(F)F)c1)[C@H](Cc1c[nH]c2ccccc12)NC(=O)N1CCC2(C=Cc3ccccc32)CC1` [Example 3, 3,5-Bistrifluoromethylbenzyl 2-(S)-((spiro-1H-indene-1,4'-piperidino)-carbonyl-amino)-3-(3-indolyl)propionate], the IC50 is 1 nM in assay [1] and over 1000 nM in assay [2].

On to `COc1ccccc1N1CCN(C(=O)N[C@@H](Cc2c[nH]c3ccccc23)C(=O)N(C)Cc2ccccc2)CC1` [Example 12, N-Benzyl-N-methyl-2-(S)-((4-(2-methoxyphenyl)piperazino)-carbonyl-amino)-3-(3-indolyl)propionamide], for which the IC50 amounted to 20 nM in assay [1] and 25 nM in assay [2].

Turning to `CN(Cc1ccccc1)C(=O)[C@@H](Cc1c[nH]c2ccccc12)NC(=O)N1CCC(c2ccccc2)CC1` [Example 33], the IC50 in assay [1] stood at 750 nM; in assay [2], 250 nM.

As for `CN(Cc1ccccc1)C(=O)[C@H](Cc1c[nH]c2ccccc12)NC(=O)N1CCC2(C=Cc3ccccc32)CC1` [Example 1, N-Benzyl-N-methyl-2-(S)-((spiro-1H-indene-1,4'-piperidino)-carbonyl-amino)-3-(3-indolyl)propionamide], the IC50 in assay [1] was 40 nM; in assay [2], 10 nM.

For the compound `CN(Cc1cccc(C(F)(F)F)c1)C(=O)[C@H](Cc1c[nH]c2ccccc12)NC(=O)N1CCC2(CC1)CN(S(C)(=O)=O)c1ccccc12` [Example 26, N-(3-Trifluoromethylphenyl)methyl-N-methyl-2-(S)-((1-methanesulfonyl-spiroindoline-3,4'-piperidino)-carbonyl-amino)-3-(3-indolyl)propionamide], the figures for the IC50 in assay [1] and in assay [2] were 7.5 nM and 127 nM, respectively.

As for `Cc1cccc(CNC(=O)[C@H](Cc2c[nH]c3ccccc23)NC(=O)N2CCC3(CCc4ccccc43)CC2)c1` [Example 17, N-(3-Methylbenzyl)-2-(S)-((spiroindane-1,4'-piperidino)-carbonyl-amino)-3-(3-indolyl)propionamide], the IC50 was 60 nM in assay [1] and 65 nM in assay [2].

Take `CS(=O)(=O)N1CC2(CCN(C(=O)N[C@@H](Cc3c[nH]c4ccccc34)C(=O)NCc3ccccc3)CC2)c2ccccc21` [Example 2, N-Benzyl-2-(S)-((1-methanesulfonyl-spiroindoline-3,4'-piperidino)-carbonyl-amino)-3-(3-indolyl)propionamide]: the IC50 in assay [1] was 70 nM; in assay [2], 40 nM.

As for `CCN(Cc1ccccc1)C(=O)[C@H](Cc1c[nH]c2ccccc12)NC(=O)N1CCC2(CCc3ccccc32)CC1` [Example 20, N-Benzyl-N-ethyl-2-(S)-((spiroindane-1,4'-piperidino)-carbonyl-amino)-3-(3-indolyl)propionamide], the IC50 in assay [1] was 120 nM; in assay [2] it was 25 nM.

As for `CN(Cc1cc(Cl)cc(Cl)c1)C(=O)[C@H](Cc1c[nH]c2ccccc12)NC(=O)N1CCC2(CC1)CN(S(C)(=O)=O)c1ccccc12` [Example 27, N-(3,5-Dichlorophenyl)methyl-N-methyl-2-(S)-((1-methanesulfonyl-spiroindoline-3,4'-piperidino)-carbonyl-amino)-3-(3-indolyl)propionamide], the figures for the IC50 in assay [1] and in assay [2] were 1 nM and 180 nM, respectively.

In the case of `CN(Cc1ccccc1)C(=O)[C@H](Cc1c[nH]c2ccccc12)NC(=O)N1CCN(Cc2ccccc2)CC1` [Example 10, N-Benzyl-N-methyl-2-(S)-((4-benzylpiperazino)-carbonyl-amino)-3-(3-indolyl)propionamide], the IC50 turned out to be 60 nM in assay [1] and 100 nM in assay [2].

As for `CN(Cc1ccccc1)C(=O)[C@@H](Cc1c[nH]c2ccccc12)NC(=O)N1CCC2(CC1)CN(S(C)(=O)=O)c1ccccc12` [Example 32, N-Benzyl-N-methyl-2-(R)-((1-methanesulfonyl-spiroindoline-3,4'-piperidino)-carbonyl-amino)-3-(3-indolyl)propionamide], the IC50 in assay [1] was 200 nM; in assay [2] it was 180 nM.

Consider `CC(=O)NC1(c2ccccc2)CCN(C(=O)N[C@@H](Cc2c[nH]c3ccccc23)C(=O)N(C)Cc2ccccc2)CC1` [Example 9, N-Benzyl-N-methyl-2-(S)-(((4-phenyl-4-acetylamino)piperidino)-carbonyl-amino)-3-(3-indolyl)propionamide], for which the values for the IC50 in assay [1] and in assay [2] were 60 nM and over 100 nM, respectively.

For the compound `Cc1ccccc1N1CCN(C(=O)N[C@@H](Cc2c[nH]c3ccccc23)C(=O)N(C)Cc2ccccc2)CC1` [Example 13, N-Benzyl-N-methyl-2-(S)-((4-(2-methylphenyl)piperazino)-carbonyl-amino)-3-(3-indolyl)propionamide], the figures for the IC50 in assay [1] and in assay [2] were 30 nM and 15 nM, respectively.
